Reference: patent US10092568B2, “CBP/Catenin antagonists for enhancing asymmetric division of somatic stem cells” (University of Southern California, priority 2010, dated 2018)
Entries after “also recorded” stand apart in the source; their conditions may differ.

Tests used:
p300 = p300 (Homo sapiens, UniProt Q09472); test: Binding to coactivator p300
From the text: ICG-001. Applicant's pharmacologic tools were identified using cell-based forward chemical genomic screens of small molecule secondary structure template chemical libraries (22).

MDA-MB-231 cells = test: Stem cell markers in triple negative breast cancer cell line; assay type: cell-based
From the text: This phenotype CD44^hi, CD24^lo has been associated with a subpopulation of cells that behave like a breast cancer stem/tumor initiating cell population (51). […] Beyond reduction of survivin message level, there is a gene expression profile consistent with the occurrence of a mesenchymal to epithelial (MET) transition (i.e., decreased expression of twist, vimentin and S100A4 and an increase in E-cadherin expression). Recently, there have been a number of papers, which have correlated epithelial to mesenchymal transition (EMT) with a CSC phenotype (52). EMT is a normal physiologic process that is important in development and in adults, for example in wound healing, but pathophysiologically is associated with tumor metastasis and organ fibrosis (see later discussion on fibrosis). Specific CBP/catenin antagonists can reverse this aberrant EMT in vivo (EMT also plays a critical role in the skin in hair loss etc. J Dermatol Sci. 2011 Jan; 61(1):7-13. Epub 2010 Dec. 5; epithelial-mesenchymal transition (EMT) plays important roles not only in the morphogenesis but also in wound repair, tissue fibrosis and cancer progression. Recently, regulatory mechanism of this process has been elaborately elucidated. EMT can be a new therapeutic target for treating skin ulcer, fibrosing alopecia, and malignant cutaneous cancers, including squamous cell carcinoma and melanoma).

[1] = tested on: bleomycin-induced pulmonary fibrosis; test: Bleomycin-induced lung injury / pulmonary fibrosis; assay type: in vivo, mouse
From the text: The well-characterized model of bleomycin-induced lung injury has been extensively used to investigate potential pathways involved in the pathogenesis of pulmonary fibrosis and to explore therapeutic approaches.

[2] = tested on: NOD/SCIDIL2R gamma−/− mice; test: Leukemia mouse model, hair growth and wound healing; assay type: in vivo; conditions: 50 mg/kg/d with VDL versus VDL only
Method: NOD/SCIDIL2R gamma−/− mice were shaved and sublethally irradiated prior intravenous injection of 50,000 cells per animal. Leukemic animals were treated with a combination of intraperitoneally administered vincristine/dexamethasone/L-Aspariginase (VDL) and ICG-001 (50 mg/kg/d), which was delivered via subcutaneous osmotic pumps to ensure stable plasma levels, with VDL only as a control for 20 days. The animals were checked periodically for survival, hair growth, and wound healing.

Sequence of p300 (Q09472 whole entry, species assumed): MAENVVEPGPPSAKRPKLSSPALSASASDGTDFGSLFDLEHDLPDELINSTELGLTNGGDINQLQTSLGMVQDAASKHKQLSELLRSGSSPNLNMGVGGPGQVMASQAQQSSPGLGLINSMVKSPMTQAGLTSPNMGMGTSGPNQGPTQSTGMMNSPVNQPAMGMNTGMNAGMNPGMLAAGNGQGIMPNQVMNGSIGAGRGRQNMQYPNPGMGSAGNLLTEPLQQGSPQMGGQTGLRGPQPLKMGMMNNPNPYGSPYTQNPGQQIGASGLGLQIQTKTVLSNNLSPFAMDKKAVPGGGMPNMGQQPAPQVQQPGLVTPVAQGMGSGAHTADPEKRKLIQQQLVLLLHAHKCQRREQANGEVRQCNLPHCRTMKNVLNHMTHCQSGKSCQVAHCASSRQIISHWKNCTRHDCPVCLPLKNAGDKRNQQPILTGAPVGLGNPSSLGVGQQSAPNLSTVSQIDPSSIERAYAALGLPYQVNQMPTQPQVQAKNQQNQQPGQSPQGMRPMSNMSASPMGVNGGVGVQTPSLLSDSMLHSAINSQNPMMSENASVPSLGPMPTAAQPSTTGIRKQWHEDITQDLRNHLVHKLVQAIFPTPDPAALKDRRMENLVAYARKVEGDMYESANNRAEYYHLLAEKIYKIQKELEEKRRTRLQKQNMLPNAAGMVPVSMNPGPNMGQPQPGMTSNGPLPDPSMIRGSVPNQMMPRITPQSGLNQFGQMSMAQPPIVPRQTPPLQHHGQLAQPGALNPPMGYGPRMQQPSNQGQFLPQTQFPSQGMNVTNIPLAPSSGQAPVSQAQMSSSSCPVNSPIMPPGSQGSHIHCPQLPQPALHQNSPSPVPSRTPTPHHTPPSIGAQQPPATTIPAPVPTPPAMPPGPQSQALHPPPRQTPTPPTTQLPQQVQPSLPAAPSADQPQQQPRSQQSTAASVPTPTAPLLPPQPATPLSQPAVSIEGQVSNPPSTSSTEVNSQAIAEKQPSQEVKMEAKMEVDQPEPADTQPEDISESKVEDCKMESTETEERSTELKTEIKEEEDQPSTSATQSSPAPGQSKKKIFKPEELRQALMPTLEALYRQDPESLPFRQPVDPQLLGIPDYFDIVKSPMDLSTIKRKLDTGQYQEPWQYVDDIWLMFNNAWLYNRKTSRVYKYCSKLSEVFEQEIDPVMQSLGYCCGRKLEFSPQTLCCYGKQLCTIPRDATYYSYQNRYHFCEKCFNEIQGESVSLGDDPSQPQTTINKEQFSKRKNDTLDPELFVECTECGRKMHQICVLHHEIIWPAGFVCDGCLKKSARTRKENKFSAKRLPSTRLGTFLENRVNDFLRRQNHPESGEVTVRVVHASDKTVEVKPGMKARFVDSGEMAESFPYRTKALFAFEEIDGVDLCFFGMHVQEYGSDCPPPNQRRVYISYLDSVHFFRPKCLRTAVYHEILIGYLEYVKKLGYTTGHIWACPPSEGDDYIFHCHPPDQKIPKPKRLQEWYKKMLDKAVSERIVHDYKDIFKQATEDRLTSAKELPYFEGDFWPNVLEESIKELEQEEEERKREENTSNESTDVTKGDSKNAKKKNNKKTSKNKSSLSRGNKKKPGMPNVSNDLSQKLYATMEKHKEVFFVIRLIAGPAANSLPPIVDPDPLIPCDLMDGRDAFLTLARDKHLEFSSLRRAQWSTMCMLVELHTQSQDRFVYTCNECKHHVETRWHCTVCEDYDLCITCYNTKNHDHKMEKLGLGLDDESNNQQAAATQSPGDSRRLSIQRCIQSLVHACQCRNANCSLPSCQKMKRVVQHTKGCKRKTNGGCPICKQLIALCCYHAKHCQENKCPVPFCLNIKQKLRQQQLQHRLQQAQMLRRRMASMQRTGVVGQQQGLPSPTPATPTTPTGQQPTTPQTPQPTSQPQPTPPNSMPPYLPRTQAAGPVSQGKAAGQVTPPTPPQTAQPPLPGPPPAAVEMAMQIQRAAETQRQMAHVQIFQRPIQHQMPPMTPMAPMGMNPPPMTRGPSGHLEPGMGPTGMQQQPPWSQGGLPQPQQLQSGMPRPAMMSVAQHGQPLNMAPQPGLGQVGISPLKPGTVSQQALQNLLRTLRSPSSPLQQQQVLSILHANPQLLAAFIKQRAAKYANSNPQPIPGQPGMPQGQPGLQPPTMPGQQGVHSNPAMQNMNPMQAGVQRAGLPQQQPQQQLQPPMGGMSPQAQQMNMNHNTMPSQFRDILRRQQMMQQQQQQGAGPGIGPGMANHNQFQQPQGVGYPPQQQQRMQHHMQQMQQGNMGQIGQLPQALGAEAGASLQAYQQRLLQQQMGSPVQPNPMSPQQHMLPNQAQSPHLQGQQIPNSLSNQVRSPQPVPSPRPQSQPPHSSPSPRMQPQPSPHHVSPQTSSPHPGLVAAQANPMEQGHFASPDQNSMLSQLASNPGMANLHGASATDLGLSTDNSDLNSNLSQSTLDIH

Structure (SMILES): O=C1[C@H](Cc2ccc(O)cc2)N2C(=O)CCN(C(=O)NCc3ccccc3)[C@H]2CN1Cc1cccc2ccccc12 [ICG-001]
- binding to p300 (p300): not to its closely related homolog p300
- ALDH activity (MDA-MB-231 cells): dramatically decreases
- side population (SP) (MDA-MB-231 cells): dramatically decreases
- recruitment of p300 to the CD24 promoter (MDA-MB-231 cells; ChIP): increased recruitment
- CD44 expression (MDA-MB-231 cells; MDA-MB-231): decreasing
- expression of cell surface CD24 (MDA-MB-231 cells; MDA-MB-231, 24h): significantly increased
- lacZ expression in airway and alveolar epithelium ([1]; BAT-gal transgenic mice, intranasal bleomycin): significantly reduced
- expression of genes associated with fibrosis, ECM deposition and EMT ([1]; after bleomycin): essentially to the level of control
- expression of S100A4/FSP-1 ([1]; in vivo in the mouse): significantly decreased
- established fibrosis ([1]; mouse model): could reverse established fibrosis
- severity of pulmonary fibrosis ([1]; pretreatment): significantly reduced the severity
- healing of wounds from pump insertion [2]: had substantial improved; also recorded: heal quicker
- hair growth of shaved area ([2]; within two weeks): had regrown their hair; also recorded: substantial hair growth
